Read-outs that look alike come from different tables or passages of the source.
Legend:
TNFα = test: IRAK4 Monocyte TNFα Cell Based Assay (LPS-stimulated, TR-FRET TNFα detection); set-up: species or system human; settings: Homo sapiens, Monocyte, read-out: EC50 MONO TNF HTRF
In short: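 Monocytes (5,000 cells/well) treated with compound (0.1% DMSO) for 1 hour at 37° C, then stimulated with 50 pg/ml LPS for 4 hours. TNFα in medium quantified by TR-FRET two-antibody detection after overnight room-temperature incubation. Percent of control calculated against unstimulated (0%) and LPS-stimulated (100%) cells.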

IRAK4 enzyme = biological target: T1, IRAK4 enzyme (Homo sapiens, UniProt Q9NWZ3); test: IRAK4 Biochemical Assay (TR-FRET, STK1 KinEASE); settings: 500 μM ATP, Table 2 second part (compounds 33-343), read-out: IC50 IRAK4-HTBS
T1 construct: purchased Carna Biosciences, Chuo-ku, Kobe, Japan
T1 sequence (Q9NWZ3 1-460): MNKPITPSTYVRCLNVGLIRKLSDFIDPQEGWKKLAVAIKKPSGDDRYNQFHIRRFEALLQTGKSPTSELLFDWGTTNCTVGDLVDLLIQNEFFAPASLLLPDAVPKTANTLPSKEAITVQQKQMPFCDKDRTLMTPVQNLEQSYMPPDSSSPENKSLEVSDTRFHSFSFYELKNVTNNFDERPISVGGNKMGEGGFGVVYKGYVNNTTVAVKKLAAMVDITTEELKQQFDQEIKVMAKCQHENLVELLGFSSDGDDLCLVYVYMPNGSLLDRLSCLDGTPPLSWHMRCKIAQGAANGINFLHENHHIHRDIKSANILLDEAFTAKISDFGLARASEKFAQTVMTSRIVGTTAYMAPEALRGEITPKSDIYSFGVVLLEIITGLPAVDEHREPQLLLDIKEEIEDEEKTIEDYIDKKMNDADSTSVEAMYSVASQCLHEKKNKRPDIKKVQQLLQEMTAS
In short: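 Human IRAK4 (0.75 nM) preincubated 15 min with compound and 2 μM STK1 peptide, then reacted 120 min at room temperature with 500 μM ATP in HEPES pH 7.0 buffer with MgCl2 and DTT. EDTA stop with Cryptate anti-phosphopeptide antibody and tracer, 60 min; TR-FRET read as 665/615 nm ratio.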

[1] = human monocytes, LPS-stimulated, Table 2 second part (compounds 33-343)

| Structure (SMILES) | EC50 (TNFα; [1]) [nM] | IC50 (IRAK4 enzyme) [nM] | EC50 (TNFα) [nM] |
| --- | --- | --- | --- |
| CC(=O)N[C@@H]1[C@@H]2C[C@H]1CN(c1nnc(-c3cnc(-c4ccc5cc(C#N)cnn45)cc3NC(C)C)s1)C2 [Example 173, N-((1R,5S,6s)-3-(5-(6-(3-cyanopyrrolo[1,2-b]pyridazin-7-yl)-4-(isopropylamino)pyridin-3-yl)-1,3,4-thiadiazol-2-yl)-3-azabicyclo[3.1.1]heptan-6-yl)acetamide] | – | 1.52 | 11.6 |
| CC(=O)N[C@@H]1[C@@H]2C[C@H]1CN(c1nnc(-c3cnc(-c4ccc5cc(C#N)cnn45)cc3N[C@H](C)C#N)s1)C2 [Example 174, N-((1R,5S,6S)-3-(5-(4-(((R)-1-cyanoethyl)amino)-6-(3-cyanopyrrolo[1,2-b]pyridazin-7-yl)pyridin-3-yl)-1,3,4-thiadiazol-2-yl)-3-azabicyclo[3.1.1]heptan-6-yl)acctamide] | – | 0.49 | 3.5 |
| CC(=O)N[C@@H]1[C@@H]2C[C@H]1CN(c1nnc(-c3cnc(-c4ccc5cc(C#N)cnn45)cc3NC3(C)COC3)s1)C2 [Example 175, N-((1R,5S,6s)-3-(5-(6-(3-cyanopyrrolo[1,2-b]pyridazin-7-yl)-4-((3-methyloxetan-3-yl)amino)pyridin-3-yl)-1,3,4-thiadiazol-2-yl)-3-azabicyclo[3.1.1]heptan-6-yl)acetamide] | – | 0.57 | 9 |
| CNc1cc(-c2ccc3cc(C#N)cnn23)ncc1-c1nnc(N2C[C@H]3C[C@@H](C2)[C@@H]3NC(C)=O)s1 [Example 176, N-((1R,5S,6s)-3-(5-(6-(3-cyanopyrrolo[1,2-b]pyridazin-7-yl)-4-(methylamino)pyridin-3-yl)-1,3,4-thiadiazol-2-yl)-3-azabicyclo[3.1.1]heptan-6-yl)acetamide] | – | 0.76 | 23.5 |
| CC(=O)N[C@@H]1[C@@H]2C[C@H]1CN(c1nnc(-c3cnc(-c4ccc5cc(C#N)cnn45)cc3NC3COC3)s1)C2 [Example 179, N-((1R,5S,6s)-3-(5-(6-(3-cyanopyrrolo[1,2-b]pyridazin-7-yl)-4-(oxetan-3-ylamino)pyridin-3-yl)-1,3,4-thiadiazol-2-yl)-3-azabicyclo[3.1.1]heptan-6-yl)acetamide] | – | 0.37 | 6.4 |
| N#Cc1cnn2c(-c3cc(NC4COC4)c(-c4nnc([C@H]5CC[C@@H](NC(=O)C6CC6)CC5)s4)cn3)ccc2c1 [Example 203, N-((1s,4s)-4-(5-(6-(3-cyanopyrrolo[1,2-b]pyridazin-7-yl)-4-(oxetan-3-ylamino)pyridin-3-yl)-1,3,4-thiadiazol-2-yl)cyclohexyl)cyclopropanecarboxamide] | 13.7 | 0.83 | – |
| COC(=O)N[C@H]1CC[C@@H](c2nnc(-c3cnc(-c4ccc5cc(C#N)cnn45)cc3NC3COC3)s2)CC1 [Example 205, methyl ((1s,4s)-4-(5-(6-(3-cyanopyrrolo[1,2-b]pyridazin-7-yl)-4-(oxetan-3-ylamino)pyridin-3-yl)-1,3,4-thiadiazol-2-yl)cyclohexyl)carbamate] | 20.1 | 0.62 | – |
| CC(=O)N[C@@H]1C[C@H]2COC[C@@H](C1)N2c1nnc(-c2cnc(-c3ccc4cc(C#N)cnn34)cc2NC(C)C)s1 [Example 209, N-((1R,5S,7r)-9-(5-(6-(3-cyanopyrrolo[1,2-b]pyridazin-7-yl)-4-(isopropylamino)pyridin-3-yl)-1,3,4-thiadiazol-2-lyl)-3-oxa-9-azabicyclo[3.3.1]nonan-7-yl)acetamide] | – | 0.89 | 9.6 |

More lines, main results first:

| EC50 (TNFα; [1]) [nM] | IC50 (IRAK4 enzyme) [nM] | Structure (SMILES) | EC50 (TNFα) [nM] |
| --- | --- | --- | --- |
| 2.1 | 0.46 | CC(=O)N[C@@H]1[C@@H]2CC[C@H]1CN(c1nnc(-c3cnc(-c4ccc5cc(C#N)cnn45)cc3NC3CCOCC3)s1)C2 [Example 171, N-((1R,5S,8s)-3-(5-(6-(3-cyanopyrrolo[1,2-b]pyridazin-7-yl)-4-((tetrahydro-2H-pyran-4-yl)amino)pyridin-3-yl)-1,3,4-thiadiazol-2-yl)-3-azabicyclo[3.2.1]octan-8-yl)acetamide] | – |
| 37.8 | 0.53 | CC(=O)N[C@H]1[C@@H]2COC[C@H]1CN(c1nnc(-c3cnc(-c4ccc5cc(C#N)cnn45)cc3NC(C)C)s1)C2 [Example 182, N-((1R,5S,9r)-7-(5-(6-(3-cyanopyrrolo[1,2-b]pyridazin-7-yl)-4-(isopropylamino)pyridin-3-yl)-1,3,4-thiadiazol-2-yl)-3-oxa-7-azabicyclo[3.3.1]nonan-9-yl)acetamide] | – |
| 2.4 | 0.54 | CC(=O)N[C@@H]1[C@@H]2CC[C@H]1CN(c1nnc(-c3cnc(-c4ccc5cc(C#N)cnn45)cc3NC3COC3)s1)C2 [Example 184, N-((1R,5S,8s)-3-(5-(6-(3-cyanopyrrolo[1,2-b]pyridazin-7-yl)-4-(oxetan-3-ylamino)pyridin-3-yl)-1,3,4-thiadiazol-2-yl)-3-azabicyclo[3.2.1]octan-8-yl)acetamide] | – |
| 38.3 | 0.69 | CC(C)Nc1cc(-c2ccc3cc(C#N)cnn23)ncc1-c1nnc([C@H]2C[C@@](C)(O)C2)s1 [Example 199, 7-(5-(5-((1s,3s)-3-hydroxy-3-methylcyclobutyl)-1,3,4-thiadiazol-2-yl)-4-(isopropylamino)pyridin-2-yl)pyrrolo[1,2-b]pyridazine-3-carbonitrile] | – |
| 24.1 | 0.63 | C[C@]1(O)C[C@@H](c2nnc(-c3cnc(-c4ccc5cc(C#N)cnn45)cc3NC3COC3)s2)C1 [Example 200, 7-(5-(5-((1s,3s)-3-hydroxy-3-methylcyclobutyl)-1,3,4-thiadiazol-2-yl)-4-(oxetan-3-ylamino)pyridin-2-yl)pyrrolo[1,2-b]pyridazine-3-carbonitrile] | – |
| 34.9 | 1.17 | CC(=O)N[C@H]1C[C@H](c2nnc(-c3cnc(-c4ccc5cc(C#N)cnn45)cc3NC3CCOCC3)s2)C1 [Example 201, N-((1r,3r)-3-(5-(6-(3-cyanopyrrolo[1,2-b]pyridazin-7-yl)-4-((tetrahydro-2H-pyran-4-yl)amino)pyridin-3-yl)-1,3,4-thiadiazol-2-yl)cyclobutyl)acetamide] | – |
| 166 | 1.23 | CC(=O)N[C@H]1C[C@H](c2nnc(-c3cnc(-c4ccc5cc(C#N)cnn45)cc3NC3COC3)s2)C1 [Example 202, N-((1r,3r)-3-(5-(6-(3-cyanopyrrolo[1,2-b]pyridazin-7-yl)-4-(oxctan-3-ylamino)pyridin-3-yl)-1,3,4-thiadiazol-2-yl)cyclobutyl)acetamide] | – |
| 2.8 | 0.84 | CC1(Nc2cc(-c3ccc4cc(C#N)cnn34)ncc2-c2nnc(N3C[C@H]4CC[C@@H](C3)[C@@H]4NC(=O)C(C)(C)O)s2)COC1 [Example 210, N-((1R,5S,8s)-3-(5-(6-(3-cyanopyrrolo[1,2-b]pyridazin-7-yl)-4-((3-methyloxetan-3-yl)amino)pyridin-3-yl)-1,3,4-thiadiazol-2-yl)-3-azabicyclo[3.2.1]octan-8-yl)-2-hydroxy-2-methylpropanamide] | – |
| 1830 | 0.31 | CC(C)Nc1cc(-c2ccc3cc(C#N)cnn23)ncc1-c1nnc(C(=O)N[C@H]2C[C@H](O)C2)s1 [Example 213, 5-(6-(3-cyanopyrrolo[1,2-b]pyridazin-7-yl)-4-(isopropylamino)pyridin-3-yl)-N-((1r,3r)-3-hydroxycyclobutyl)-1,3,4-thiadiazole-2-carboxamide] | – |

— patent US12060351B2, “Thiadiazole IRAK4 inhibitors” (Gilead Sciences, Inc., priority 2018, dated 2024)
